The subject of one data set is Haemonchus contortus. Put plainly: Haemonchus contortus larvacidal (larval development) assay. The data set is classed as in vivo. The following applies: 144 h, read-out: Haemonchus contortus LD99. The procedure: a) Haemonchus Contortus Larvacidal Assay:
The effect of compounds on larval development was determined in the assay described by Gill et al. (1995, International Journal of Parasitology 25:463-470). Briefly, in this assay, nematode eggs were applied to the surface of an agar matrix containing the test compound and then allowed to develop through to the L3, infective stage (6 days). The wells for each dilution of every compound (from highest to lowest concentration) were inspected to determine the well number corresponding to the lowest concentration at which development was inhibited in 99% of the nematode larvae present (LD99). Because well numbers correspond to a two-fold serial dilution of each compound, a titre (dilution factor) is generated as 2^n−1, where n is the well number. By dividing the highest concentration tested by the titre an LD99 value can be obtained, representing the concentration required to inhibit development in 99% of the nematode larvae present. The compounds supplied as solid and viscous liquids were dissolved in DMSO. Twelve serial one-half dilutions in DMSO solution were prepared from the stock solution, each of which was then diluted ⅕ with water. Aliquots (10 μl) of each dilution were transferred to the bioassay plates to give a final concentration range of 0.024 to 50 μg/ml.

Data set [1] concerns cat flea (Ctenocephalides felis). The experiment in a line: whole plant or invertebrate. Type of data set: in vivo. As to conditions: for mortality at 1.26 µg/cm2, 1.26 µg/cm2: Ctenocephalides felis. The procedure: b) Ctenocephalides felis Adulticide Assay: C. felis Single Dose Screen
Mortality of fleas was the primary endpoint in the assay. Fleas were considered dead if they didn't move or were on their sides and unable to walk or right themselves. […] The concentration chosen (1.26 μg/cm^2) was higher than that known to kill 90% of cat fleas (LC90) using the reference compound, permethrin.
The test species was the cat flea (Ctenocephalides felis). The strain used was obtained from external suppliers as pupae and held in the laboratory under testing conditions until the adults had emerged. Fifteen (15) fleas were used in a minimum of four replicates against a single concentration level (approximately 60 fleas). The insects were selected to be in the adult life stage, aged between 3 and 7 days post emergence.
The compounds to be tested were supplied as solids and were prepared in acetone as described below prior to testing. Samples were stored in a refrigerator (5±1° C.) unless otherwise specified.
During the mortality testing, the temperature was maintained at 25±1° C. Humidity was maintained at 75±5%. The base (area=159 mm^2) of a 100 mL glass Erlenmeyer (conical) flask provided the treatment surface. Flasks were pretreated with Coatasil™ glass treatment to maximise bio-availability of test compounds by preventing them from binding to glass the surface. The base of the 100 mL Erlenmeyer flask was treated with 0.5 mL of test sample in acetone and gently swirled. This volume was sufficient to cover the base of the flask. Flasks were left to dry for 24 hours before flea exposure.
Adult cat fleas were placed into a sorting chamber, which allowed fleas to jump into the Erlenmeyer flasks. Fifteen (15) adult cat fleas were collected in each flask. The top of the flasks were then covered in Parafilm™ and small holes were made to allow gas exchange. A 0.5 mL volume of acetone as a solvent control was applied to the base of an Erlenmeyer flask and the testing proceeded in the same manner described above. Cat fleas in the treatment containers were held under testing conditions for 8, 24 and/or 48 hours. Mortality was recorded at 8, 24, 8 and 24, or 24 and 48 hours. Pooled 8, 24, 8 and 24, and 24 and 48 hour mortality data were converted to percentages and are summarized by Tables 14, 14A and 14B, below.

Setting [2] is: 24 h, read-out: C. felis Mortality (%) 24 h, 24 h, Laboratory 1 A data.
Where [3] appears, read: 24 h, read-out: C. felis Mortality (%) 24 h, 24 h, Laboratory 2 B data.
Setting [4] is: 48 h, read-out: C. felis Mortality (%) 48 h, 48 h, Laboratory 2 B data.

Read-outs that look alike come from different tables or passages of the source.

Take `O=S(=O)(Nc1ccc(Cl)cc1/C(=N/OCc1ccccc1C(F)(F)F)c1ccccc1)C(F)(F)F` [Compound 69]: in the data set with Haemonchus contortus, the IC99 came out at 2.7 µg/mL. `C/C(=N\OCc1ccccc1Cl)c1cc(Cl)ccc1NS(=O)(=O)C(F)(F)F` [Compound 17]: in the data set with Haemonchus contortus, the IC99 was determined as 3.5 µg/mL. Still for that read-out and setting: with `O=S(=O)(Nc1ccc(Cl)cc1/C=N/OCc1cccc(Cl)c1Cl)C(F)(F)F` [Compound 95] the figure was 0.8 µg/mL; with `O=S(=O)(Nc1ccc(Cl)cc1/C(=N/OCc1ccccc1)c1ccccc1)C(F)(F)F` [Compound 66], 13 µg/mL; with `C/C(=N\OCc1cccc(Oc2ccccc2)c1)c1cc(Cl)ccc1NS(=O)(=O)C(F)(F)F` [Compound 47], 1.5 µg/mL. The same measure, in the same setting: with `CCC/C(=N\OCc1ccc(Cl)cc1)c1cc(Cl)ccc1NS(=O)(=O)C(F)(F)F` [Compound 112] the figure was 3 µg/mL. On the same count and under the same terms, with `O=S(=O)(Nc1ccc(Cl)cc1/C(=N/OCc1cccc(Cl)c1Cl)c1ccccc1)C(F)(F)F` [Compound 62] the figure was 3 µg/mL; with `C/C(=N\OCc1ccc(Br)cc1)c1cc(Cl)ccc1NS(=O)(=O)C(F)(F)F` [Compound 23], 0.8 µg/mL; with `O=S(=O)(Nc1ccc(Cl)cc1/C(=N/OCc1ccc(Cl)cc1)c1ccccc1)C(F)(F)F` [Compound 63], 1.6 µg/mL. For the molecule `O=S(=O)(Nc1ccc(Cl)cc1/C(=N/OCc1cccc(C(F)(F)F)c1)c1ccccc1)C(F)(F)F` [Compound 68], in the data set with Haemonchus contortus, the IC99 is 3.5 µg/mL.

As to `CCC/C(=N\OCc1ccc(Cl)c(Cl)c1)c1cc(Cl)ccc1NS(=O)(=O)C(F)(F)F` [Compound 101], the IC99 in the data set on Haemonchus contortus was found to be 1.9 µg/mL. Consider `CC/C(=N\OCc1ccccc1)c1cc(Cl)ccc1NS(=O)(=O)C(F)(F)F` [Compound 107], for which the IC99 with Haemonchus contortus is 10 µg/mL. Same read-out and setting: with `CC/C(=N\OCc1cccc(Cl)c1)c1cc(Cl)ccc1NS(=O)(=O)C(F)(F)F` [Compound 7] the figure was 1.6 µg/mL. For `O=S(=O)(Nc1ccc(Cl)cc1-c1cc(-c2ccccc2)on1)C(F)(F)F` [Compound 225], the IC99 in the data set on Haemonchus contortus (lowest concentration inhibiting development in 99% of larvae, eggs to L3, 6 days, range 0.024 to 50 μg/ml) is 3.2 µg/mL. For `C/C(=N\OC(C)c1ccccc1)c1cc(Cl)ccc1NS(=O)(=O)C(F)(F)F` (stereo not drawn) [Compound 122], the IC99 with Haemonchus contortus was 7 µg/mL. On the same count and under the same terms, with `C/C(=N\OCc1ccc([N+](=O)[O-])cc1)c1cc(Cl)ccc1NS(=O)(=O)C(F)(F)F` [Compound 4] the figure was 2.5 µg/mL. On the same count and under the same terms, with `CC(C)/C(=N\OCc1ccc(C2CCCCC2)cc1)c1cc(Cl)ccc1NS(=O)(=O)C(F)(F)F` [Compound 118] the figure was 10 µg/mL; with `O=S(=O)(Nc1ccc(Cl)cc1/C(=N/OCc1ccc(Br)cc1)c1ccccc1)C(F)(F)F` [Compound 64, N-{2-[(4-bromobenzyloxyimino)phenylmethyl]-4-chlorophenyl}trifluoromethanesulfonamide], 1.4 µg/mL; with `CCC/C(=N\OCc1ccc(Br)cc1)c1cc(Cl)ccc1NS(=O)(=O)C(F)(F)F` [Compound 102], 1.9 µg/mL. Take `C/C(=N\OCc1cccc(C(F)(F)F)c1)c1cc(Cl)ccc1NS(=O)(=O)C(F)(F)F` [Compound 15]: in the data set with Haemonchus contortus, the IC99 is 2.7 µg/mL. The same measure, in the same setting: in the case of `O=S(=O)(Nc1ccc(Cl)cc1/C=N/OCc1ccc(C(F)(F)F)cc1)C(F)(F)F` [Compound 70] it was 3 µg/mL. On the same count and under the same terms, with `CC/C(=N\OCc1cccc(C(F)(F)F)c1)c1cc(Cl)ccc1NS(=O)(=O)C(F)(F)F` [Compound 12] the figure was 1.7 µg/mL; with `COc1ccc(CO/N=C(\c2ccccc2)c2cc(Cl)ccc2NS(=O)(=O)C(F)(F)F)cc1` [Compound 88], 15 µg/mL.

`CCC/C(=N\OCc1cccc(Cl)c1Cl)c1cc(Cl)ccc1NS(=O)(=O)C(F)(F)F` [Compound 99]: the IC99 with Haemonchus contortus was 2.5 µg/mL. Regarding `CCC/C(=N\OCCOc1ccccc1)c1cc(Cl)ccc1NS(=O)(=O)C(F)(F)F` [Compound 115], the IC99 with Haemonchus contortus was 7.5 µg/mL.

Turning to `C/C(=N\OCc1ccccc1C(F)(F)F)c1cc(Cl)ccc1NS(=O)(=O)C(F)(F)F` [Compound 13], in the data set on Haemonchus contortus, the IC99 stood at 3 µg/mL. Same read-out and setting: in the case of `C/C(=N\OCc1cccc(Cl)c1)c1cc(Cl)ccc1NS(=O)(=O)C(F)(F)F` [Compound 18] it was 3.7 µg/mL. Turning to `O=S(=O)(Nc1ccc(Cl)cc1/C(=N/OCc1ccc(F)cc1F)c1ccccc1)C(F)(F)F` [Compound 82], the IC99 with Haemonchus contortus came out at 3.3 µg/mL. On the same count and under the same terms, in the case of `CC/C(=N\OCc1ccc(-c2ccccc2)cc1)c1cc(Cl)ccc1NS(=O)(=O)C(F)(F)F` [Compound 94] it was 7.5 µg/mL. On the same count and under the same terms, with `C/C(=N\OCc1ccccc1F)c1cc(Cl)ccc1NS(=O)(=O)C(F)(F)F` [Compound 39] the figure was 7 µg/mL; with `CC/C(=N\OCc1c(Cl)cccc1Cl)c1cc(Cl)ccc1NS(=O)(=O)C(F)(F)F` [Compound 8], 13 µg/mL. For `O=S(=O)(Nc1ccc(Cl)cc1/C(=N/Oc1ccc(Cl)cc1)c1ccccc1)C(F)(F)F` [Compound 164, N-{4-chloro-2-[(4-chlorophenoxyimino)phenylmethyl]phenyl}trifluoromethanesulfonamide], in data set [1] (setting [2]), the mortality at 1.26 µg/cm2, 1.26 µg/cm2 was determined as 19%. As for `C/C(=N\OC1C=CCCC1)c1ccc(C(F)(F)F)cc1NS(=O)(=O)C(F)(F)F` (stereo not drawn) [Compound 238], the mortality at 1.26 µg/cm2, 1.26 µg/cm2 in data set [1] (setting [3]) is 61%; in data set [1] (setting [4]), 84%. Take `CO/N=C(\C)c1cccc(C)c1NS(=O)(=O)C(F)(F)F` [Compound 42]: the mortality at 1.26 µg/cm2, 1.26 µg/cm2 in data set [1] (setting [2]) was 72%. Same read-out and setting: with `CC/C(=N\Oc1ccc(C(F)(F)F)cc1)c1cc(Cl)ccc1NS(=O)(=O)C(F)(F)F` [Compound 145] the figure was 9%. On the same count and under the same terms, in the case of `CCO/N=C(\C)c1cccc(C)c1NS(=O)(=O)C(F)(F)F` [Compound 43] it was 86%; in that of `C/C(=N\Oc1ccc(OC(F)(F)F)cc1)c1cc(Cl)ccc1NS(=O)(=O)C(F)(F)F` [Compound 151], 62%. The same measure, in the same setting: with `CC/C(=N\OCC#N)c1cc(Cl)ccc1NS(=O)(=O)C(F)(F)F` [Compound 153] the figure was 77%; with `CCO/N=C(\C)c1ccccc1NS(=O)(=O)C(F)(F)F` [Compound 29], 92%; with `C/C(=N\Oc1ccc(C)cc1)c1cc(Cl)ccc1NS(=O)(=O)C(F)(F)F` [Compound 141], 41%. For the molecule `C/C(=N\OCC1CCCCC1)c1cc(Cl)ccc1NS(=O)(=O)C(F)(F)F` [Compound 173], in data set [1] (setting [2]), the mortality at 1.26 µg/cm2, 1.26 µg/cm2 was 96%. The same measure, in the same setting: with `CC/C(=N\OC(C)C)c1cc(Cl)ccc1NS(=O)(=O)C(F)(F)F` [Compound 154] the figure was 100%; with `CC/C(=N\Oc1ccc(OC(F)(F)F)cc1)c1cc(Cl)ccc1NS(=O)(=O)C(F)(F)F` [Compound 152], 61%.

For the molecule `CC/C(=N\OC(C)C1CC1)c1cc(Cl)ccc1NS(=O)(=O)C(F)(F)F` (stereo not drawn) [Compound 254], the mortality at 1.26 µg/cm2, 1.26 µg/cm2 is 84% in data set [1] (setting [3]) and 100% in data set [1] (setting [4]). Consider `CCC/C(=N\OC1CCCCC1)c1cc(Cl)ccc1NS(=O)(=O)C(F)(F)F` [Compound 192], for which the mortality at 1.26 µg/cm2, 1.26 µg/cm2 in data set [1] (8 h, read-out: C. felis Mortality (%) 8 h, 8 h, Laboratory 2 B data) is 18%; in data set [1] (setting [3]), 43%. `CC/C(=N\OCCC(C)C)c1cc(Cl)ccc1NS(=O)(=O)C(F)(F)F` [Compound 248]: the “C. felis Mortality (%) 24 h” value in data set [1] (24 h, Laboratory 2 B data) is given as 96^B %. In addition, the “C. felis Mortality (%) 48 h” value in data set [1] (48 h, Laboratory 2 B data) is on record as 100%.

On to `CCC/C(=N\Oc1ccc(Cl)cc1)c1cc(Cl)ccc1NS(=O)(=O)C(F)(F)F` [Compound 166, N-{4-chloro-2-[1-(4-chlorophenoxyimino)butyl]phenyl}trifluoromethanesulfonamide], for which, in data set [1] (setting [2]), the mortality at 1.26 µg/cm2, 1.26 µg/cm2 stood at 17%.

A word on the mortality: it is the share of the test organisms that died.

The record behind these values is patent US7312248B2, “Control of parasites in animals by the use of novel trifluoromethanesulfonanilide oxime ether derivatives” (Schering-Plough Animal Health Corporation, priority 2004, dated 2007).
